Measured values: a melting point compilation (Tetko et al.; mined from patent text by program, amines drawn as free bases though some values may be those of a salt)

melting point [°C]	SMILES
230 to 232	COc1cccc(CNC(=O)c2nc3cccc(COCc4ccc(C(=O)O)cc4)c3c(=O)[nH]2)c1
125	C=CCc1c(O)c(Cl)c(Cl)c2c1CC(C)(c1ccccc1)C2=O (stereo not given)
179	COc1cc(C(=O)N2Cc3ccc(C(=O)NCc4c(CO)cnc(C)c4O)n3Cc3ccccc32)ccc1-c1ccccc1C
143 to 144	CC(C)(C)OC(=O)N1CC(=O)Nc2ccccc21
67 to 68	Cc1cc(C)c([Si]2(c3c(C)cc(C)cc3C)C(=O)C(c3ccccc3)=C(c3ccccc3)C(=O)[Si]2(c2c(C)cc(C)cc2C)c2c(C)cc(C)cc2C)c(C)c1
99 to 100	CC(C)CCNc1c([N+](=O)[O-])cnc2ccccc12
136	CCCCC(CC)C(=O)Nc1ccc2cnn(Cc3ccc(C(=O)OC)cc3OC)c2c1 (stereo not given)
96 to 97	CCn1nc(C)c2c(Cl)c(CCl)cnc21
156 to 157	O=C1c2ccccc2C(=O)N1c1cccnc1Cl
168 to 170	O=C1C2CCCCN2C(=O)N1c1c(F)cc(Cl)c2nc(Cl)sc12 (stereo not given)
301 to 303	COC(=O)c1cc(-c2ccc3c(=O)[nH]c(=O)[nH]c3n2)ccc1OC
112 to 114	Oc1cccc2c1OCCCO2
216 to 217	Cc1ccc2cccc(OCc3c(Cl)ccc(S(=O)(=O)n4cccc4)c3Cl)c2n1
246 to 249	CNC(=O)c1cc(Br)cc(F)c1Nc1nc(Cl)ncc1Cl
234 to 236	Cc1cc(-c2nnc3c4ccccc4c(OCc4ccccn4)nn23)no1
102 to 103	COc1ccc(C2CCOCC2)cc1N
108 to 112	CCCCNCc1ccc2cc(O)ccc2c1
100 to 102	Cc1c(C(=O)c2ccc3ccccc3c2)cccc1[N+](=O)[O-]
187 to 190	Clc1ccc2[nH]c3c(c2c1)CN(CCc1ccc2ccccc2n1)CC3
141	CS(=O)(=O)c1ccccc1C(=O)N1CCC(N2CCC(Oc3ccc(Cl)c(Cl)c3)CC2)CC1
216 to 218	CSc1cc2nc[nH]c(=O)c2s1
167 to 168	Cc1c(NC(=O)c2ccc(-c3ccc(F)cc3)cc2)ccc2cc(CN3C(C)CCCC3C)cnc12 (stereo not given)

melting point [°C]	SMILES
124 to 127	O=c1cccc(-c2ccccn2)[nH]1
173 to 174	Cc1oc(C2CCCCC2)nc1C(=O)O
> 300	Nc1ncc2c(n1)N(c1ccccc1)C(=O)N(c1c(Cl)cccc1Cl)C2
114 to 116	COc1ccc(OCc2ccccc2)cc1C(=O)O
127 to 129	CS(=O)(=O)c1ccc(-n2nc(C(F)(F)F)cc2-c2ccc(F)cc2)cc1
113 to 115	Fc1cc2ccc(CBr)nc2cc1F
201 to 202	O=C(O)c1cc(-c2ccc(Cl)cc2)nc(-c2ccc(Oc3ccc(F)cc3)cc2)c1
> 250	CS(=O)(=O)Nc1cc2oc(O)cc(=O)c2cc1Oc1ccccc1
361 to 364	O=c1c2ccc(Cl)cc2[nH]c2c(O)nn(CCN3CCN(c4ccccc4)CC3)c(=O)c12
212	CCOCc1nc2c(N)nc3cc(-c4ccc(F)cc4)cnc3c2n1CC1(O)CCCC1
244	CC(=O)NS(=O)(=O)c1cccc(-c2cccc(-c3cc(-c4ccc(C(F)(F)F)cc4)cc(C)n3)n2)c1
116	COC(=O)CCCN1CCC(NC(=O)c2ccccc2)CC1
117 to 118	CCCC1(CCC)CCC2(CC1)CC(=O)N(CCC#N)C2=O
198	O=C(CBr)Nc1coc2ccccc2c1=O
122 to 124	CCOC(=O)Cc1nc(-c2ccc(Cl)cc2)oc1Oc1cc(C)ccc1C
272	COc1cc(C2Cc3ccccc3-c3nc(N)c4ccccc4c32)cc(OC)c1OC (stereo not given)
232 to 237	C/C=C/c1nnc(N2N=C(c3ccc([N+](=O)[O-])c(C)c3)c3cc4c(cc3C[C@H]2C)OCO4)s1
70 to 73	O=S(=O)(NCCCCCCCCCCCCBr)c1ccc(Cl)cc1
138 to 140	COC1=CC(=O)c2c(C)cccc2C1=O
230 to 232	O=C(O)c1ccc(CSc2nnc(S)s2)cc1
102 to 103	COc1cc(C)c(O)c2ccccc12
230 to 232	O=C(O)Cc1c(C(=O)c2ccc(-c3ccco3)cc2)[nH]c2cc(Cl)ccc12

melting point [°C]	SMILES
102	C=CCNc1cc(Oc2cc(Cl)c(Br)cc2Cl)c(Cl)cc1[N+](=O)[O-]
91 to 93	COc1cc(Oc2csc(C(F)(F)F)c2)nc(-c2ccc(C(F)(F)F)cc2)n1
196 to 200	N#Cc1cc(-c2c(-c3ccccc3)nn3ccccc23)cn(CCC(=O)O)c1=O
128 to 131	CC(=O)OC1CSC(Oc2ccc(C#N)nc2C)C(OC(C)=O)C1OC(C)=O (stereo not given)
182	Nc1ccc(Nc2c(NCc3ccco3)cc(C(=O)O)cc2S(=O)(=O)Nc2ccccc2N)cc1
22	CCCCCCCc1cnc([C@H]2CC[C@H](CCCCC)CC2)nc1
122 to 124	Nc1ccc(-c2ccc(N)cc2C(=O)OCCCCCCOc2ccc(-c3ccccc3)cc2)c(C(=O)OCCCCCCOc2ccc(-c3ccccc3)cc2)c1
107 to 109	CC1CC(=O)N(CCCCN2CCN(c3cncc(Cl)n3)CC2)S(=O)(=O)N1 (stereo not given)
77 to 78	O=C1NCC(Cc2cccc(F)c2)O1 (stereo not given)
208 to 214	Cc1ccc(-n2c3ccc(C)cc3c3cc(-n4ccnc4-c4nccn4-c4ccc5c(c4)c4cc(C)ccc4n5-c4ccc(C)cc4)ccc32)cc1
103	CCCC(=O)OCC(=O)C1(OC(=O)CCC)CCC2C3CC(C)C4=CC(=O)CCC4(C)C3C(O)CC21C (stereo not given)
100 to 102	CN1CC2CN(C)CC(C1)C2OC(=O)c1ccccc1 (stereo not given)
298	CC(C)c1ccc2ncc(C(=O)O)c(O)c2c1
171 to 172	Cc1cc(OCC(O)CCl)c2cn[nH]c2c1 (stereo not given)
238	Cn1cnnc1C(N)(c1ccc(I)cc1)c1ccc2c(c1)c(-c1cccc(Cl)c1)nc1nnnn12 (stereo not given)
55 to 57	Cc1ccccc1NNC(=O)c1ccccc1C(F)(F)F
94 to 95	CCC(CC)c1ccc(Cl)c2nc(Cl)n(C)c12
169 to 171	CC=Cc1cccc2c(=O)c(C)c(-c3ccc(OC)cc3)oc12
110 to 112	CCCCC(=Nc1sc(Cl)cc1C(=O)NCCC)OC
114	CN1C[C@H](c2cnccn2)OC1=O
210 to 212	O=C(NCc1ccc(Cl)cc1)c1cn2c3c(cc(CN4CCOCC4)cc3c1=O)OC(CN1CCCC1)C2 (stereo not given)
75 to 76	CCCCCCCCn1c(C2=CC(=O)c3ccccc3C2=O)ccc1C1=CC(=O)c2ccccc2C1=O

SMILES	melting point [°C]
Cc1cn2cc(NC(=O)c3cc4cc(F)ccc4n3Cc3cccc(F)c3)ccc2n1	200 to 203
COC(=O)CNC(=O)OC1c2ccccc2C(=O)N1c1ccc2ccc(Cl)nc2n1 (stereo not given)	208 to 210
Cc1nc(C(=O)NC(C)(CO[N+](=O)[O-])CO[N+](=O)[O-])cs1	78 to 81
CCOC(=O)c1ncn2c1CNC(=O)c1c(Cl)cccc1-2	278 to 279
